Test results as given in patent US11992497B2 (priority 2021, dated 2024).
Where two headings read alike, the source gives them in different places.

Tests used:
[1] = tested on: lipopolysaccharide (LPS)-induced inflammation; test: Rat LPS model, serum pro-inflammatory cytokines; assay type: in vivo, Sprague Dawley rats; conditions: oral, 4 days; 2 h after LPS
Method: This assay was employed to determine the efficacies of CBG, compound 1, and compound 2 against lipopolysaccharide (LPS)-induced inflammation in Sprague Dawley rats.
Eight- to 10-week-old male rats were treated with CBG, Compound 1, and Compound 2, or a positive control (cyclosporin A) for four days prior to treatment with LPS. Twenty-eight (28) Sprague Dawley male rats, 8-10 weeks old, were used for this study. Animals were randomized by weight into one of 7 treatment groups as shown in Table 10 below and treated for 4 days with either vehicle control (Groups 1 and 2), Cyclosporin A (Neoral) (Group 3), CBG at 30 mg/kg (Group 4), Compound 1 at 31.5 mg/kg (Group 5), Compound 2 at 32.7 mg/kg (Group 6) or CBG at 30 mg/kg (intraperitoneal/IP; Group 7). Groups 1-6 were dosed for 4 days by oral gavage; group 7 was dosed for 4 days by IP injection. After the 4th injection, Groups 2-7 received a single IP injection of LPS at 5 mg/kg to induce inflammation. Body weight was recorded every other day starting on the day of or day prior to the first day of treatment. A terminal body weight was recorded. General health and clinical signs were recorded once daily. Blood was collected to isolate immune cells at 2 hours after the LPS injection. […]
Serum samples (N=82) were processed and shipped to Inotiv Boulder for analysis. […] The samples were analyzed for cytokine levels using the RECYTMAG-65K Luminex™ kit. […]

[2] = Quantification of CBG and CBG glucuronide in rat plasma (LC-MS/MS); assay type: in vivo, Sprague-Dawley rat
Method: The purpose of this study was to quantify cannabigerol (CBG) in rat plasma and brain.
Seven- to nine-week-old male and female Sprague-Dawley received either a single dose or once daily dosing for 21 days of vehicle or CBG at three different dosage levels as shown in the Table below.
Approximately 0.2-0.25 mL blood was collected during the first 24 hours after the single dose, and at multiple times points after the terminal dose for the animals receiving daily dosing for 21 days. Liver, kidney, and colon samples were collected and fixed in 10% NBF for 48 hours, then stored in 70% ethanol at room temperature. Brain samples were collected and flash frozen.
Analytical curves were constructed using non-zero standards with CBG concentration ranging from 0.0025 to 2.500 μg/mL and 2.500-100.0 μg/mL in blank rat plasma samples and 1.0 to 2500 ng/mL in blank brain tissues. A blank sample was used to exclude contamination.
Instrument Used: AB SCIEX QTRAP 4500/Shimadzu Prominence LC

[3] = Hepatocyte stability and metabolite profiling; assay type: in vitro ADME, rat; conditions: cryopreserved hepatocytes in suspension; Rat cryopreserved hepatocytes
Method: (§1) The objective of this study was to investigate the stability of the test compound, CBG, in human, rat, dog, mouse, monkey and minipig cryopreserved hepatocytes. Follow-on metabolite profiling was performed.
(§2) CBG was incubated up to 2 hr with cryopreserved hepatocytes. Cryopreserved hepatocytes in suspension were added to test compound in supplemented media following pre-incubation to initiate the reaction and the reactions were stopped by organic solvent at the appropriate time points. The termination plates were centrifuged and sample supernatants were analysed using Cyprotex generic LC MS/MS conditions to generate intrinsic clearance values for CBG. Two control compounds for each species were included in the assay and if the values for these compounds were not within the specified limits the results were rejected and the experiment repeated.
(§3) Following the hepatocyte stability assay the samples were 59tilized for metabolite profiling using suitable high-resolution LC-MS/MS conditions. The 40 and 60 minute human samples, 20 and 120 minute rat samples, 10 and 20 minute dog and monkey samples, 20 and 60 minute mouse samples, and 40 and 120 minute minipig samples were compared against the 0 minute control sample to establish which and how many metabolites were formed. […] No further analysis was carried out with the mouse species.
(§4) The areas and percentages reported for the parent and metabolites were calculated using the XIC data. Metabolite observed at greater than 1% of the total of drug related material are reported. […] For accuracy, a ppm error of less than 5 is desirable; when the response for a metabolite observed is low the ppm error maybe greater than 5. Where a metabolite has been referred to as a potential oxidation it can refer to a potential hydroxylation, epoxidation or oxide formation. Representative collision induced dissociation (CID) mass spectra were obtained for the metabolites found.

[4] = tested on: cryopreserved hepatocytes; test: Hepatocyte stability and metabolite profiling; assay type: in vitro ADME, rat; conditions: rat hepatocyte samples
Method: as §1, §2, §3, §4

[5] = Hepatocyte stability and metabolite profiling; assay type: in vitro ADME; conditions: cryopreserved hepatocytes in suspension; Mouse cryopreserved hepatocytes
Method: as §1, §2
Following the hepatocyte stability assay the samples were 59tilized for metabolite profiling using suitable high-resolution LC-MS/MS conditions. The 40 and 60 minute human samples, 20 and 120 minute rat samples, 10 and 20 minute dog and monkey samples, 20 and 60 minute mouse samples, and 40 and 120 minute minipig samples were compared against the 0 minute control sample to establish which and how many metabolites were formed. […]
The areas and percentages reported for the parent and metabolites were calculated using the XIC data. […]

[6] = Hepatocyte stability and metabolite profiling; assay type: in vitro ADME, monkey; conditions: cryopreserved hepatocytes in suspension; Monkey cryopreserved hepatocytes
Method: as §1, §2, §3, §4

[7] = tested on: cryopreserved hepatocytes; test: Hepatocyte stability and metabolite profiling; assay type: in vitro ADME, monkey; conditions: monkey hepatocyte samples
Method: as §1, §2, §3, §4

CCCCCc1cc(OC)c(C/C=C(\C)CCC=C(C)C)c(OC)c1 [Compound 2, (E)-2-(3,7-dimethylocta-2,6-dien-1-yl)-1,3-dimethoxy-5-pentylbenzene]
reduction of IL-1B and IFNy relative to CBG (in words) [1]: equal to or better than CBG

CCCCCc1cc(O)c(C/C=C(\C)CCC=C(C)C)c(O)c1 [CBG, cannabigerol]
CBG concentration in rat plasma (Day 21) ([2]; CBG 10 mg/kg oral gavage once daily, 15 min post Rx): BLQ (BLQ—Below Limit of Quantification (2.5 ng/ml))
CBG concentration in rat plasma (Day 21) ([2]; CBG 10 mg/kg oral gavage once daily, 30 min post Rx): BLQ (BLQ—Below Limit of Quantification (2.5 ng/ml))
CBG concentration in rat plasma (Day 21) ([2]; CBG 10 mg/kg oral gavage once daily, 24 hr post Rx): BLQ (BLQ—Below Limit of Quantification (2.5 ng/ml))
CBG concentration in rat plasma (Day 1) ([2]; CBG 10 mg/kg oral gavage once, 15 min post Rx): BLQ (BLQ—Below Limit of Quantification (2.5 ng/ml))
CBG concentration in rat plasma (Day 1) ([2]; CBG 10 mg/kg oral gavage once, 30 min post Rx): BLQ (BLQ—Below Limit of Quantification (2.5 ng/ml))
CBG concentration in rat plasma (Day 1) ([2]; CBG 10 mg/kg oral gavage once, 4 hr post Rx): BLQ (BLQ—Below Limit of Quantification (2.5 ng/ml))
CBG concentration in rat plasma (Day 1) ([2]; CBG 10 mg/kg oral gavage once, 8 hr post Rx): BLQ (BLQ—Below Limit of Quantification (2.5 ng/ml))
CBG concentration in rat plasma (Day 1) ([2]; CBG 10 mg/kg oral gavage once, 24 hr post Rx): BLQ (BLQ—Below Limit of Quantification (2.5 ng/ml))
CBG concentration in rat plasma (Day 21) ([2]; CBG 30 mg/kg oral gavage once daily, 30 min post Rx): BLQ (BLQ—Below Limit of Quantification (2.5 ng/ml))
CBG concentration in rat plasma (Day 21) ([2]; CBG 30 mg/kg oral gavage once daily, 1 hr post Rx): BLQ (BLQ—Below Limit of Quantification (2.5 ng/ml))
CBG concentration in rat plasma (Day 21) ([2]; CBG 30 mg/kg oral gavage once daily, 2 hr post Rx): BLQ (BLQ—Below Limit of Quantification (2.5 ng/ml))
CBG concentration in rat plasma (Day 21) ([2]; CBG 30 mg/kg oral gavage once daily, 4 hr post Rx): BLQ (BLQ—Below Limit of Quantification (2.5 ng/ml))
CBG concentration in rat plasma (Day 21) ([2]; CBG 30 mg/kg oral gavage once daily, 8 hr post Rx): BLQ (BLQ—Below Limit of Quantification (2.5 ng/ml))
CBG concentration in rat plasma (Day 21) ([2]; CBG 30 mg/kg oral gavage once daily, 24 hr post Rx): BLQ (BLQ—Below Limit of Quantification (2.5 ng/ml))
CBG concentration in rat plasma (Day 1) ([2]; CBG 30 mg/kg oral gavage once, 8 hr post Rx): BLQ (BLQ—Below Limit of Quantification (2.5 ng/ml))
CBG concentration in rat plasma (Day 21) ([2]; CBG 100 mg/kg oral gavage once daily, 24 hr post Rx): BLQ (BLQ—Below Limit of Quantification (2.5 ng/ml))
CBG concentration in rat plasma (Day 1) ([2]; CBG 100 mg/kg oral gavage once, 15 min post Rx): BLQ (BLQ—Below Limit of Quantification (2.5 ng/ml))
CBG concentration in rat plasma (Day 1) ([2]; CBG 100 mg/kg oral gavage once, 30 min post Rx): BLQ (BLQ—Below Limit of Quantification (2.5 ng/ml))
CBG concentration in rat plasma (Day 1) ([2]; CBG 100 mg/kg oral gavage once, 1 hr post Rx): BLQ (BLQ—Below Limit of Quantification (2.5 ng/ml))
CBG concentration in rat plasma (Day 1) ([2]; CBG 100 mg/kg oral gavage once, 2 hr post Rx): BLQ (BLQ—Below Limit of Quantification (2.5 ng/ml))
CBG concentration in rat plasma (Day 1) ([2]; CBG 100 mg/kg oral gavage once, 8 hr post Rx): BLQ (BLQ—Below Limit of Quantification (2.5 ng/ml))
CBG concentration in rat plasma (Day 1) ([2]; CBG 100 mg/kg oral gavage once, 24 hr post Rx): BLQ (BLQ—Below Limit of Quantification (2.5 ng/ml))
concentration at 1 h ([2]; both sexes, Sprague-Dawley, rat, plasma, oral, 10 mg/kg, CBG 10 mg/kg oral gavage once daily, 1 hr post Rx, read-out: CBG concentration in rat plasma (Day 21)): 1.67 ng/mL
concentration at 4 h ([2]; both sexes, Sprague-Dawley, rat, plasma, oral, 10 mg/kg, CBG 10 mg/kg oral gavage once daily, 4 hr post Rx, read-out: CBG concentration in rat plasma (Day 21)): 4.73 ng/mL
concentration at 8 h ([2]; both sexes, Sprague-Dawley, rat, plasma, oral, 10 mg/kg, CBG 10 mg/kg oral gavage once daily, 8 hr post Rx, read-out: CBG concentration in rat plasma (Day 21)): 2.55 ng/mL
concentration at 2 h ([2]; both sexes, Sprague-Dawley, rat, plasma, oral, 10 mg/kg, CBG 10 mg/kg oral gavage once, 2 hr post Rx, read-out: CBG concentration in rat plasma (Day 1)): 12 ng/mL
concentration at 15 min ([2]; both sexes, Sprague-Dawley, rat, plasma, oral, 30 mg/kg, CBG 30 mg/kg oral gavage once, 15 min post Rx, read-out: CBG concentration in rat plasma (Day 1)): 3.8 ng/mL
concentration at 30 min ([2]; both sexes, Sprague-Dawley, rat, plasma, oral, 30 mg/kg, CBG 30 mg/kg oral gavage once, 30 min post Rx, read-out: CBG concentration in rat plasma (Day 1)): 15.2 ng/mL
concentration at 24 h ([2]; both sexes, Sprague-Dawley, rat, plasma, oral, 30 mg/kg, CBG 30 mg/kg oral gavage once, 24 hr post Rx, read-out: CBG concentration in rat plasma (Day 1)): 2.75 ng/mL
concentration at 15 min ([2]; both sexes, Sprague-Dawley, rat, plasma, oral, 100 mg/kg, CBG 100 mg/kg oral gavage once daily, 15 min post Rx, read-out: CBG concentration in rat plasma (Day 21)): 41.6 ng/mL
concentration at 30 min ([2]; both sexes, Sprague-Dawley, rat, plasma, oral, 100 mg/kg, CBG 100 mg/kg oral gavage once daily, 30 min post Rx, read-out: CBG concentration in rat plasma (Day 21)): 178 ng/mL
concentration at 1 h ([2]; both sexes, Sprague-Dawley, rat, plasma, oral, 100 mg/kg, CBG 100 mg/kg oral gavage once daily, 1 hr post Rx, read-out: CBG concentration in rat plasma (Day 21)): 226 ng/mL
concentration at 2 h ([2]; both sexes, Sprague-Dawley, rat, plasma, oral, 100 mg/kg, CBG 100 mg/kg oral gavage once daily, 2 hr post Rx, read-out: CBG concentration in rat plasma (Day 21)): 307 ng/mL
concentration at 4 h ([2]; both sexes, Sprague-Dawley, rat, plasma, oral, 100 mg/kg, CBG 100 mg/kg oral gavage once, 4 hr post Rx, read-out: CBG concentration in rat plasma (Day 1)): 119 ng/mL
concentration of CBG in plasma (in words) ([2]; oral CBG 10-100 mg/kg, Days 1 and 21): low or below the level of quantitation (BLQ)
first pass metabolism to the glucuronide upon oral administration (in words) ([2]; oral CBG, rat): very high first pass metabolism to the glucuronide
half-life [3]: 49 min
hepatocyte CLint [3]: 28.3 µL/min/1e6 cells
number of metabolites observed [4]: eight
half-life [5]: 42.2 min
hepatocyte CLint [5]: 32.8 µL/min/1e6 cells
half-life [6]: 11.3 min
hepatocyte CLint [6]: 122 µL/min/1e6 cells
number of metabolites observed [7]: four
